Data: publication PMC8748687 (Nature Communications, 2022)

Legend:
TCR RLQ3 = assay type: binding, human; conditions: read-out: KD of TCR RLQ3 for peptide–HLA-A2
TCR YLQ7 = assay type: binding, human; conditions: for Kd: read-out: KD of TCR YLQ7 for peptide–HLA-A2

RLTTLNAFV [MERS-RLT]
Kd (TCR RLQ3): > 100 µM

YLKPTTFML [SARS-YLK]
Kd (TCR YLQ7): > 50 µM

YLAPRTFML [GD_pangolin YLQ ortholog]
Measured TCR ΔΔG, YLQ7 (TCR YLQ7): 1.7 kcal/mol

KLQPLTFLL [MERS-KLQ]
Kd (TCR YLQ7): > 50 µM

RLAALNVFV [229E-RLA]
Kd (TCR RLQ3): > 100 µM

RLAALNAFV [NL63-RLA]
Kd (TCR RLQ3): > 100 µM

PLSKRQYLL [HKU1-PLS]
Kd (TCR YLQ7): > 50 µM

RLTALNAYV [HKU1-RLT]
Kd (TCR RLQ3): > 100 µM

PLTSRQYLL [OC43-PLT]
Kd (TCR YLQ7): > 50 µM
